{
  "source": "patent US10745352B2",
  "about": "“Dual function molecules for histone deacetylase inhibition and ataxia telangiectasia mutated activation and methods of use thereof” (Shuttle Pharmaceuticals, Inc., priority 2015, dated 2020)",
  "key": {"[1]": {"test_system": "pan-HDACs", "experiment": "Pan-HDAC assay (Fluor-de-Lys fluorometric kit, HeLa Nuclear Extract)", "type": "biochemical", "details": "values are average EC50, read-out: EC50 against pan-HDACs", "description": "Certain compounds of the invention were tested in a pan-HDAC assay to determine the ability of such compounds to inhibit HDAC protein. Specifically, the compounds tested included: N-(6-(hydroxyamino)-6-oxohexyl)-3-methyl-1H-indole-2-carboxamide (SP-1-161) (FIG. 8A); N^1-hydroxy-N^6-(2-(2-methyl-1H-indol-3-yl)ethyl)octanediamide (SP-1-163) (FIG. 8A); (S)—N-(6-(hydroxyamino)-6-oxohexyl)-1-tosylindoline-2-carboxamide (SP-1-169) (FIG. 8B); and (S)-1-((5-(dimethylamino)naphthalene-1-yl)sulfonyl)-N-(6-(hydroxyamino)-6-oxoheyl)indoline-carboxamide (SP-1-171) (FIG. 8B).\nThe Pan HDAC assay was performed as follows:\nMaterials: Enzo Fluor-de-Lys HDAC fluorometric activity assay kit; 360 nm excitation 460 nm emission Plate Reader; Disposable pipettes; Pipet-aid; Pipette tips; Micro-pipetter; DMSO; Sterile micro-tubes and conical tubes; and Micro-centrifuge.\nTest compounds and control preparation: All test compounds' stock solutions were made in 100% DMSO. Test compound dilutions were made in HDAC Assay buffer with a final concentration of DMSO less than or equal to 1%. Vehicle control was HDAC Assay buffer with 1% DMSO.\nThe reagents for the assay were prepared as follows:\n1. All kit components were defrosted and these, and all dilutions described below, were kept on ice until use. All undiluted kit components are stable for several hours on ice.\n2. A sufficient amount of HeLa Nuclear Extract (BML-KI140) or other HDAC source diluted in Assay Buffer (BML-KI143) was prepared to provide for the assays that were performed (# of wells×15 μl). A 30-fold dilution of the HeLa Extract means that 15 μl contains 0.5 μl of the undiluted Extract, an appropriate amount to use per well.\n3. Dilution(s) of Trichostatin A and/or Test Inhibitors were prepared in Assay Buffer (BML-KI143). Since 10 μl were used per well, and since the final volume of the HDAC reaction was 50 μl, these inhibitor dilutions were 5× their final concentration.\n4. Dilution(s) of the Fluor de Lys® Substrate (BML-KI104; 50 mM) were prepared in Assay Buffer (BML-KI143) that were 2× the desired final concentration(s). For inhibitor screening, substrate concentrations at or below the Km are recommended. Twenty-five μL were used per well. Initial dilutions of 25-fold or greater in Assay Buffer (2.0 mM or less) yielded stable solutions (see NOTE on freezing and thawing below). Rapid mixing and dilution into room temperature buffer helped to prevent precipitation at high substrate concentration. NOTE: Freezing/thawing of Fluor de Lys® Substrate solutions in Assay Buffer may cause precipitation of the Substrate. Dilute only amount necessary for one day's experiment.\n5. Shortly before use (<30 min.), sufficient Fluor de Lys® Developer was prepared for the assays to be performed (50 μl per well). […]"}, "[2]": {"test_system": "HPV+ CasKi cells vs normal epithelial cells (RWPE1 cells)", "experiment": "MTT cytotoxicity assay, normal epithelial cells versus HPV+ cervical cancer cells", "type": "cell-based, human", "description": "SP-1-161 was tested in a MTT cytotoxicity assay against normal epithelial cells and human papilloma virus positive (HPV+) cancerous (CasKi) cervical cells. […] This supports the role for the compounds of the invention (e.g., SP-1-161) as treatments of HPV+ cancers and tumors."}, "[3]": {"test_system": "cervical cancer cells (CasKi)", "experiment": "Radiation clonogenic survival, cervical cancer cells", "type": "cell-based", "description": "(§1) Logarithmically growing cells were seeded into T-25 flasks at various densities to yield approximately 50-100 colonies/flask. After incubation for 24 h at 37° C., cells were treated or not with the compound at the IC50 concentration for 24 h followed by sham or irradiation at room temperature using a Mark-30 irradiator with a 137-Cs source at a fixed dose rate of 2.27 Gy/min. After 10-14 days, cells were fixed and stained with crystal violet, and colonies of more than 50 cells were counted. The surviving fractions of the treated cells were normalized to the plating efficiencies of untreated controls. Radiation survival curves were fitted by computer to the single-hit, multitarget and the linear-quadratic models.\nFIGS. 17-19 illustrate the effects of drugs on radiation cologenetic survivals. Cells were pretreated with drug 24 hours prior to exposure to graded doses of gamma radiation. Compounds SP-1-161 and SP-1-303 were tested in a clonogenic survival study with cervical cancer cells (CasKi) with a protocol similar to that described in Example 12. The radiation sensitivity of cells is defined by the terminal slope of the radiation survival curve, which is referred to as D0. The steeper the slope, the smaller the value of D0 and thus the more radiation sensitive the respective cells. Alternatively, a less steep slope results in a larger D0 and a more resistant radiation response. […]"}, "[4]": {"test_system": "breast cancer cells (MCF7 cells)", "experiment": "Radiation clonogenic survival, breast cancer cells", "type": "cell-based", "details": "compound at IC50 concentration for 24 h, then gamma radiation; compared with DIM", "description": "N-(6-(hydroxyamino)-6-oxohexyl)-3-methyl-1H-indole-2-carboxamide (SP-1-161) was tested against DIM in a radiation clonogenic survival study with healthy breast epithelial cells (184A1 cells) (FIG. 11A) and breast cancer cells (MCF7 cells) (FIG. 11B). After treatment with the compounds of the invention for 24 hours, the cells were exposed to graded doses of gamma radiation.\nas §1\nThe radiation sensitivity of cells is defined by the terminal slope of the radiation survival curve, which is referred to as D0. The steeper the slope, the smaller is the value of D0, and thus the more radiation sensitive the respective cells. […]"}},
  "note": "pEC50: −log10 of the molar value.",
  "data": [
    {"smiles": "Cc1c(C(=O)NCCCCCC(=O)NO)[nH]c2ccccc12", "note": "[SP-1-161, N-(6-(hydroxyamino)-6-oxohexyl)-3-methyl-1H-indole-2-carboxamide]", "values": [
      {"measurement": "pEC50", "setting": "[1]", "value": 7.53},
      {"measurement": "IC50 for HPV+ CasKi cells, times lower than that for normal epithelial cells (RWPE1 cells)", "setting": "[2]", "value": 29, "unit": "times"},
      {"measurement": "D0 (terminal slope of the radiation survival curve)", "setting": "[3]; CasKi cells pretreated with drug 24 hours before graded doses of gamma radiation, DMSO control D0=2.4", "value": 1.6},
      {"measurement": "radiation sensitization of CasKi cells (decrease of D0 with respect to control)", "setting": "[3]; CasKi cells, drug 24 hours before gamma radiation", "value": "sensitized CasKi cells"},
      {"measurement": "radiation sensitizing activity in breast cancer cells (MCF7)", "setting": "[4]", "value": "demonstrated radiation sensitizing activity and further outperformed DIM"}
    ]}
  ]
}
